These results are taken from patent US7495025B2, “Spiro-1,2,4-trioxanes” (Council of Scientific and Industrial Research, priority 2005, dated 2009).

In this assay the test system is multi-drug resistant strain of Plasmodium yoelii Nigeriensis. The assay is described as follows: Antimalarial activity against multi-drug resistant P. yoelii in Swiss mice (4-day treatment, observation till day 28). The assay is classed as in vivo. To be noted: for inhibition in vivo at 96 mg/kg/day / responders at 96 mg/kg/day / inhibition in vivo at 24 mg/kg/day / inhibition in vivo at 48 mg/kg/day / responders at 24 mg/kg/day / responders at 48 mg/kg/day: Plasmodium yoelii; for inhibition in vivo at 96 mg/kg/day / inhibition in vivo at 24 mg/kg/day / inhibition in vivo at 48 mg/kg/day: 96 h, read-out: % Suppression on Day 4; for responders at 96 mg/kg/day / responders at 24 mg/kg/day / responders at 48 mg/kg/day: 672 h. How it is done:
The antimalarial activity of the test compounds was evaluated in rodent using multi-drug resistant strain of Plasmodium yoelii Nigeriensis in Swiss mice.
Random bred Swiss mice of either sex (20±2 gm) were inoculated intraperitoneally with 1×10^5 P. yoelii (MDR) parasites on day zero. The treatments with test compounds were administered to group of 5 mice each at different dose levels ranging between 24-96 mg/kg/day. The treatment was administered in groundnut oil intramuscularly and orally for 4 consecutive days (day 0-3). Blood smears from experimental mice were observed on day 4 and 7, day 10 and thereafter at regular intervals till day 28 or death of the animal. The parasitaemia level on day 4 was compared with vehicle control group and the percent suppression of parasitaemia in treated groups were calculated.
The dose at which no parasitaemia develop during the observation period has been reported as the curative dose.

Where [1] appears, read: Swiss mice, 96 mg/kg/day, oral, in groundnut oil, days 0-3.
Where [2] appears, read: Swiss mice, 96 mg/kg/day, oral, in groundnut oil, days 0-3, read-out: Mice alive on day-28 (converted).
Setting [3] is: im, Swiss mice, 96 mg/kg/day, i.m., in groundnut oil, days 0-3.
The mark [4] stands for this setting: im, Swiss mice, 96 mg/kg/day, i.m., in groundnut oil, days 0-3, read-out: Mice alive on day-28 (converted).
[5] abbreviates: po, read-out: Mice alive on day-28.
[6] abbreviates: Swiss mice, 96 mg/kg/day, i.m., in groundnut oil, days 0-3.
[7] abbreviates: Swiss mice, 24 mg/kg/day, oral, in groundnut oil, days 0-3.
Where [8] appears, read: Swiss mice, 48 mg/kg/day, oral, in groundnut oil, days 0-3.
Where [9] appears, read: Swiss mice, 24 mg/kg/day, oral, in groundnut oil, days 0-3, read-out: Mice alive on day-28 (converted).
Setting [10] is: Swiss mice, 48 mg/kg/day, oral, in groundnut oil, days 0-3, read-out: Mice alive on day-28 (converted).
[11] abbreviates: im, Swiss mice, 48 mg/kg/day, i.m., in groundnut oil, days 0-3.
The mark [12] stands for this setting: im, Swiss mice, 48 mg/kg/day, i.m., in groundnut oil, days 0-3, read-out: Mice alive on day-28 (converted).

The structures appear in SMILES notation. Where two headings read alike, the source gives them in different places.

For `C=C(c1ccc(C2CCCCC2)cc1)C1COC2(CCC(=O)CC2)OO1` (centres unmarked) [Compound 3f, 3-[1-(4-Cyclohexyl-phenyl)-vinyl]-1,2,5-trioxa-spiro[5.5]undecan-9-one], the inhibition in vivo at 96 mg/kg/day by setting is: under setting [1], 100%; under setting [3], 100%. Also, the responders at 96 mg/kg/day is, setting by setting: under setting [2], 60%; under setting [4], 40%.

As to `CCN(CC)CCCC(C)Nc1ccnc2cc(Cl)ccc12` (centres unmarked) [Chloroquine, reference compound], for the setting “po”, the inhibition in vivo at 24 mg/kg/day is 100% and the inhibition in vivo at 48 mg/kg/day stood at 100%. Moreover, under setting [5], the responders at 24 mg/kg/day is 0% and the responders at 48 mg/kg/day is 40%.

On to `C=C(c1ccc(-c2ccccc2)cc1)C1COC2(CCC(=O)CC2)OO1` (centres unmarked) [Compound 3b, 3-(1-Biphenyl-4yl-vinyl)-1,2,5-trioxaspiro[5.5]undec-9-one], for which, under setting [6], the “% Suppression on Day 4” value is listed as 100% and the “Mice alive on day-28” value is 1/5.

As to `CCO[C@H]1O[C@@H]2O[C@@]3(C)CC[C@H]4[C@H](C)CC[C@@H]([C@H]1C)[C@@]24OO3` [β-Arteether, reference compound], under setting [7], the “% Suppression on Day 4” value worked out at 100% and the “Mice alive on day-28” value is 1/5. Under setting [8], the “% Suppression on Day 4” value was 100% and the “Mice alive on day-28” value is recorded as 5/5.

`C=C(c1ccc(Cl)cc1)C1COC2(CCC(=CC(=O)OCC)CC2)OO1` (centres unmarked) [Compound 4ac, {3-[1-(4-Chloro-phenyl)-vinyl]-1,2,5-trioxa-spiro[5.5]undec-9-ylidene}-acetic acid ethyl ester]: the inhibition in vivo at 24 mg/kg/day under setting [7] amounted to 100%. Further, the inhibition in vivo at 48 mg/kg/day turned out to be 100% under setting [8] and 100% under setting [11]. Further, the responders at 24 mg/kg/day under setting [9] was 60%. For the same compound, the responders at 48 mg/kg/day is 100% under setting [10] and 60% under setting [12]. Besides, the inhibition in vivo at 96 mg/kg/day under setting [3] turned out to be 100%. Besides, the responders at 96 mg/kg/day under setting [4] was 100%.

For the compound `C=C(c1cccc2ccccc12)C1COC2(CCC(=O)CC2)OO1` (centres unmarked) [Compound 3g, 3-(1-Naphthalen-1-yl-vinyl)-1,2,5-trioxa-spiro [5.5]undecan-9-one], the inhibition in vivo at 96 mg/kg/day under setting [1] came to 100%. For the same compound, the responders at 96 mg/kg/day under setting [2] was 20%.

On to `C=C(c1ccc(C2CCCCC2)cc1)C1COC2(CCC(=C(C)C(=O)OCC)CC2)OO1` (centres unmarked) [Compound 4bf, 2-{3-[1-(4-Cyclohexyl-phenyl)-vinyl]-1,2,5-trioxa-spiro[5.5]undec-9-ylidene}-propionic acid ethyl ester], for which the inhibition in vivo at 96 mg/kg/day under setting [1] turned out to be 100%. Besides, the responders at 96 mg/kg/day under setting [2] is 40%.

Consider `C=C(c1ccc2ccccc2c1)C1COC2(CCC(=CC(=O)OCC)CC2)OO1` (centres unmarked) [Compound 4ah, [3-(1-Naphthalen-2-yl-vinyl)-1,2,5-trioxa-spiro[5.5]undec-9-ylidene]-acetic acid ethyl ester], for which, under setting [7], the inhibition in vivo at 24 mg/kg/day was found to be 100%. In addition, the inhibition in vivo at 48 mg/kg/day under setting [8] came out at 100%. The responders at 24 mg/kg/day under setting [9] is 20%. The responders at 48 mg/kg/day under setting [10] was 100%. Under setting [3], the inhibition in vivo at 96 mg/kg/day was found to be 88%. Besides, under setting [4], the responders at 96 mg/kg/day is 40%.

`C=C(c1ccc(OC)cc1)C1COC2(CCC(=CC(=O)OCC)CC2)OO1` (centres unmarked) [Compound 4ad, {3-[1-(4-Methoxy-phenyl)-vinyl]-1,2,5-trioxa-spiro[5.5]undec-9-ylidene}-acetic acid ethyl ester]: the inhibition in vivo at 96 mg/kg/day by setting is: under setting [1], 100%; under setting [3], 100%. Besides, the responders at 96 mg/kg/day is 100% under setting [2] and 40% under setting [4].

Regarding `C=C(c1ccc(Cl)cc1)C1COC2(CCC(=O)CC2)OO1` (centres unmarked) [Compound 3c, 3-[1-(4-Chloro-phenyl)-vinyl]-1,2,5-trioxa-spiro[5.5]undecan-9-one], the inhibition in vivo at 96 mg/kg/day under setting [1] was determined as 100%. The responders at 96 mg/kg/day under setting [2] was 0%.

As to `C=C(c1cccc2ccccc12)C1COC2(CCC(=CC(=O)OCC)CC2)OO1` (centres unmarked) [Compound 4ag, [3-(1-Naphthalen-1-yl-vinyl)-1,2,5-trioxa-spiro[5.5]undec-9-ylidene]-acetic acid ethyl ester], the inhibition in vivo at 96 mg/kg/day under setting [3] turned out to be 100%. Also, the responders at 96 mg/kg/day under setting [4] was 100%.

Take `C=C(c1ccc(C)cc1)C1COC2(CCC(=CC(=O)OCC)CC2)OO1` (centres unmarked) [Compound 4ae, [3-(1-p-Tolyl-vinyl)-1,2,5-trioxa-spiro[5.5]undec-9-ylidene]-acetic acid ethyl ester]: the inhibition in vivo at 24 mg/kg/day under setting [7] amounted to 100%. The inhibition in vivo at 48 mg/kg/day stood at 100% under setting [8] and 100% under setting [11]. Moreover, under setting [9], the responders at 24 mg/kg/day is 60%. Moreover, the responders at 48 mg/kg/day was 100% under setting [10] and 40% under setting [12]. Under setting [3], the inhibition in vivo at 96 mg/kg/day was 100%. Besides, the responders at 96 mg/kg/day under setting [4] was 100%.

With `C=C(c1ccc(-c2ccccc2)cc1)C1COC2(CCC(=C(C)C(=O)OCC)CC2)OO1` (centres unmarked) [Compound 4bb, 2-[3-(1-Biphenyl-4-yl-vinyl)-1,2,5-trioxa-spiro [5.5]undec-9-ylidene]-propionic acid ethyl ester], under setting [1], the inhibition in vivo at 96 mg/kg/day was 100%. Under setting [2], the responders at 96 mg/kg/day was 60%.

On to `C=C(c1ccc(-c2ccccc2)cc1)C1COC2(CCC(=CC(=O)OCC)CC2)OO1` (centres unmarked) [Compound 4ab, [3-(1-Biphenyl-4-yl-vinyl)-1,2,5-trioxa-spiro[5.5]undec-9-ylidene]-acetic acid ethyl ester], for which, under setting [1], the inhibition in vivo at 96 mg/kg/day worked out at 100%. For the same compound, the responders at 96 mg/kg/day under setting [2] is 100%.

In the case of `C=C(c1ccccc1)C1COC2(CCC(=O)CC2)OO1` (centres unmarked) [Compound 3a, 3-(1-Phenyl-vinyl)-1,2,5-trioxaspiro[5.5]undec-9-one], under setting [6], the “% Suppression on Day 4” value stood at 99% and the “Mice alive on day-28” value was 0/5.

`C=C(c1ccccc1)C1COC2(CCC(=CC(=O)OCC)CC2)OO1` (centres unmarked) [Compound 4aa, [3-(1-Phenyl-vinyl)-1,2,5-trioxa-spiro[5.5]undec-9-ylidene]-acetic acid ethyl ester]: the inhibition in vivo at 48 mg/kg/day under setting [8] is 100%. Besides, the responders at 48 mg/kg/day under setting [10] was 100%. Further, the inhibition in vivo at 96 mg/kg/day under setting [3] came out at 99%. Besides, under setting [4], the responders at 96 mg/kg/day was 40%.

Take `C=C(c1ccc(C2CCCCC2)cc1)C1COC2(CCC(=CC(=O)OCC)CC2)OO1` (centres unmarked) [Compound 4af, {3-[1-(4-Cyclohexyl-phenyl)-vinyl]-1,2,5-trioxa-spiro[5.5]undec-9-ylidene}-acetic acid ethyl ester]: the inhibition in vivo at 48 mg/kg/day under setting [8] worked out at 100%. The inhibition in vivo at 96 mg/kg/day under setting [1] was 100%. Further, the responders at 48 mg/kg/day under setting [10] is 60%. The responders at 96 mg/kg/day under setting [2] is 80%.
